Drawing on US20210380595A1 (ARAXES PHARMA LLC, priority 2018, published 2021), this text covers Bind % for 20 molecules.

SMILES strings stand for the structures.

One assay concerns the target T1, KRAS G12C 1-169, his-tagged protein, GDP-loaded (Homo sapiens, UniProt P01116, G12C).
T1 construct: KRAS G12C 1-169, his-tagged protein, GDP-loaded
Nature of the assay: Biochemical assay: covalent modification of KRAS G12C measured by mass spectrometry (RapidFire/TOF or Q-Exactive). Type of assay: binding. As to conditions: tested at 32 μM. As to the method: Test compounds were prepared as 10 mM stock solutions in DMSO (Fisher cat. #BP-231-100). KRAS G12C 1-169, his-tagged protein, GDP-loaded is diluted to 2 μM or 0.5 μM in buffer (20 mM Hepes, 150 mM NaCl, 1 mM MgCl2). Compounds were tested for activity as follows:
Compounds were diluted to 50× final test concentration in DMSO in 96-well storage plates. Compound stock solutions were vortexed before use and observed cwerefully for any sign of precipitation. Dilutions were as follow: • For 32 μM final compound concentration, compounds were diluted to 1600 μM (3 μL 10 mM compound stock +15.75 μL DMSO and mixed well by pipetting. • For 8 μM final compound concentration, compounds were diluted to 400 μM (2 μL 10 mM compound stock +48 μL DMSO) and mixed well by pipetting. 49 μL of the stock protein solution was added to each well of a 96-well PCR plate (Fisher cat#1423027). 1 μl of the diluted 50× compounds were added to appropriate wells in the PCR plate using 12-channel pipettor. Reactions were mixed carefully and thoroughly by pipetting up/down with a 200 μL multi-channel pipettor. The plate was sealed well with aluminum plate seal, and protein and compound were allowed to react for a desired amount of time. 5 μL of 2% formic acid (Fisher cat#A117) in de-ionized H2O was then added to each well followed by mixing with a pipette to quench the reaction. The plate was then resealed with aluminum seal and stored frozen on dry ice until analyzed as described below.
The above described assays were analyzed by mass spectrometry according to one of the following two procedures:
The MS instrument was set to positive polarity, 2 GHz resolution, and low mass (1700) mode and allowed to equilibrate for 30 minutes. The instrument was then calibrated, switched to acquisition mode and the appropriate method loaded.
After another 30 minute equilibration time, a blank batch (i.e., buffer) was run to ensure equipment is operating properly. The samples were thawed at 37° C. for 10 minutes, briefly centrifuged, and transfered to the bench top. Wells A1 and H12 were spiked with 1 μL 500 μM internal standard peptide, and the plates centrifuged at 2000×g for 5 minutes. The method was then run and masses of each individual well recorded.
The masses (for which integration data is desired) for each well were pasted into the platemap and exported from the analysis. Masses for the internal standards were exported as well. The data at 50 ppm was extracted for the +19 charge state, and identity of well A1 was assigned using the internal standard spike and integrated. Peak data was exported as a TOF list and the above steps were repeated individually, for the +20, +21, +22, +23, +24, and +25 charge states.
The masses and peak intensities of KRAS G12C protein species were measured using a Dionex RSLCnano system (Thermo Scientific) connected to a Q Exactive Plus mass spectrometer (Thermo Scientific).
20 μL of sample was loaded onto a Aeris™ 3.6 μm WIDEPORE C4 200 Å, LC Column 50×2.1 mm column maintained at 40° C. at a flow rate of 600 μL/min with 80% Solvent A (0.1% formic acid in H2O) and 20% Solvent B (0.1% formic acid in acetonitrile). The liquid chromatography conditions were 20% solvent B for 1 minute, 20% to 60% solvent B for 1.5 minutes, 60% to 90% solvent for 0.5 minute, 90% solvent B for 0.2 minute, 90% to 20% solvent B for 0.2 minute, and then equilibrated for 1.6 minute before the following sample injection. The flow rate was maintained at 600 μL/min throughout the sample analysis.
The mass spectrometer was operated in profile mode at a resolution of 17500, 5 microscans, using 50 msec max injection time and an AGC target of 1×10^6, and a full mass range from 800-1850 m/z was recorded. The intact protein mode was applied for optimal ion transfer and maximum sensitivity. The ionization method was electrospray ionization, which used a spray voltage of 4 kV, sheath gas flow set to 50 AU, auxiliary gas flow set to 10 AU and sweep gas flow set to 1 AU. […]
In the case of `C=CC(=O)N1CC2(CCN(c3cccc(-c4c(O)cccc4F)c3C#N)C2)C1` [Compound I-17, 3-(2-acryloyl-2,6-diazaspiro[3.4]octan-6-yl)-2′-fluoro-6′-hydroxy-[1,1′-biphenyl]-2-carbonitrile], the Bind % result is “+ (+ indicates binding activity greater than 0% and up to 50%)”.

Consider `CC#CC(=O)N1CC2(CCN(c3cccc(-c4c(O)cccc4F)c3C#N)C2)C1` [Compound I-18, 3-(2-(but-2-ynoyl)-2,6-diazaspiro[3.4]octan-6-yl)-2′-fluoro-6′-hydroxy-[1,1′-biphenyl]-2-carbonitrile], for which the Bind % result is “+ (+ indicates binding activity greater than 0% and up to 50%)”.

As for `C=CC(=O)N1CC2(CCN(c3cccc(-c4c(C)ccc5[nH]nc(N)c45)c3C#N)C2)C1` [Compound I-19, 2-(2-acryloyl-2,6-diazaspiro[3.4]octan-6-yl)-6-(3-amino-5-methyl-1H-indazol-4-yl)benzonitrile], the Bind % result is reported as “+++ (+++ indicates binding activity greater than 75%)”.

For the molecule `C=CC(=O)N1CC2(CCN(c3cc(OCc4ccccn4)cc(-c4c(C)ccc5[nH]ncc45)c3C#N)C2)C1` [Compound I-20, 2-(2-acryloyl-2,6-diazaspiro[3.4]octan-6-yl)-6-(5-methyl-1H-indazol-4-yl)-4-(pyridin-2-ylmethoxy) benzonitrile], the Bind % result is “+++ (+++ indicates binding activity greater than 75%)”.

As for `C=CC(=O)N1CC2(CCN(c3cc(OC[C@@H]4CCCN4C)cc(-c4c(C)ccc5[nH]ncc45)c3C#N)C2)C1` [Compound I-21, 2-(2-acryloyl-2,6-diazaspiro[3.4]octan-6-yl)-6-(5-methyl-1H-indazol-4-yl)-4-(((S)-1-methylpyrrolidin-2-yl)methoxy) benzonitrile], the Bind % result is “+++ (+++ indicates binding activity greater than 75%)”.

As to `C=CC(=O)N1CCC2(CCN(c3cccc(-c4c(C)ccc5[nH]ncc45)c3C#N)C2)C1` (centres unmarked) [Compound I-22, 2-(7-acryloyl-2,7-diazaspiro[4.4]nonan-2-yl)-6-(5-methyl-1H-indazol-4-yl)benzonitrile], the Bind % result was “+ (+ indicates binding activity greater than 0% and up to 50%)”.

Consider `CC#CC(=O)N1CC2(CCN(c3cccc(-c4c(C)ccc5[nH]nc(N)c45)c3C#N)C2)C1` [Compound I-23, 2-(3-amino-5-methyl-1H-indazol-4-yl)-6-(2-(but-2-ynoyl)-2,6-diazaspiro[3.4]octan-6-yl)benzonitrile], for which the Bind % entry was “+ (+ indicates binding activity greater than 0% and up to 50%)”.

Consider `C=CC(=O)N1CC2(CCN(c3cc(N4CCC(N(C)C)CC4)cc(-c4c(C)ccc5[nH]ncc45)c3C#N)C2)C1` [Compound I-24, 2-(2-acryloyl-2,6-diazaspiro[3.4]octan-6-yl)-4-(4-(dimethylamino)piperidin-1-yl)-6-(5-methyl-1H-indazol-4-yl)benzonitrile], for which the Bind % entry is listed as “+++ (+++ indicates binding activity greater than 75%)”.

Take `C=CC(=O)N1CC2(CCN(c3ccc(C)c(-c4c(C)ccc5[nH]ncc45)c3C#N)C2)C1` [Compound I-25, 6-(2-acryloyl-2,6-diazaspiro[3.4]octan-6-yl)-3-methyl-2-(5-methyl-1H-indazol-4-yl)benzonitrile]: the Bind % entry was “++ (++ indicates binding activity from 50 to 75%)”.

In the case of `Cc1ccc2[nH]ncc2c1-c1cccc(N2CCC3(CN(C(=O)/C=C/CN(C)C)C3)C2)c1C#N` [Compound I-36, (E)-2-(2-(4-(dimethylamino)but-2-enoyl)-2,6-diazaspiro[3.4]octan-6-yl)-6-(5-methyl-1H-indazol-4-yl)benzonitrile], the Bind % result is “+ (+ indicates binding activity greater than 0% and up to 50%)”.

The same assay, now with this note: tested at a concentration of 8 μM.
Regarding `C=CC(=O)N1CC2(CCN(c3cc(N4CC(N(C)C)C4)cc(-c4c(C)ccc5[nH]ncc45)c3C#N)C2)C1` [Compound I-26, 2-(2-acryloyl-2,6-diazaspiro[3.4]octan-6-yl)-4-(3-(dimethylamino)azetidin-1-yl)-6-(5-methyl-1H-indazol-4-yl)benzonitrile], the Bind % result is “+++ (+++ indicates binding activity greater than 75%)”.

Consider `C=CC(=O)N1CC2(CCN(c3cc(OCCCN(C)C)cc(-c4c(C)ccc5[nH]ncc45)c3C#N)C2)C1` [Compound I-27, 2-(2-acryloyl-2,6-diazaspiro[3.4]octan-6-yl)-4-(3-(dimethylamino)propoxy)-6-(5-methyl-1H-indazol-4-yl)benzonitrile], for which the Bind % entry is on record as “++ (++ indicates binding activity from 50 to 75%)”.

With `C=CC(=O)N1CC2(CCN(c3cc(OCc4ccccn4)cc(-c4c(C)ccc5cnn(C)c45)c3C#N)C2)C1` [Compound I-28, 2-(2-acryloyl-2,6-diazaspiro[3.4]octan-6-yl)-6-(1,6-dimethyl-1H-indazol-7-yl)-4-(pyridin-2-ylmethoxy) benzonitrile], the Bind % entry is given as “+++ (+++ indicates binding activity greater than 75%)”.

For `C=CC(=O)N1CC2(CCN(c3ccc(F)c(-c4c(C)ccc5[nH]ncc45)c3C#N)C2)C1` [Compound I-29, 6-(2-acryloyl-2,6-diazaspiro[3.4]octan-6-yl)-3-fluoro-2-(5-methyl-1H-indazol-4-yl)benzonitrile], the Bind % result is reported as “+++ (+++ indicates binding activity greater than 75%)”.

With `C=CC(=O)N1CC2(CCN(c3cc(N4CCN(C)C(=O)C4)cc(-c4c(C)ccc5[nH]ncc45)c3C#N)C2)C1` [Compound I-30, 2-(2-acryloyl-2,6-diazaspiro[3.4]octan-6-yl)-6-(5-methyl-1H-indazol-4-yl)-4-(4-methyl-3-oxopiperazin-1-yl)benzonitrile], the Bind % entry is “++ (++ indicates binding activity from 50 to 75%)”.

For the molecule `C=CC(=O)N1CC2(CCN(c3cc(N4CCCC(O)C4)cc(-c4c(C)ccc5[nH]ncc45)c3C#N)C2)C1` (centres unmarked) [Compound I-31, 2-(2-acryloyl-2,6-diazaspiro[3.4]octan-6-yl)-4-(3-hydroxypiperidin-1-yl)-6-(5-methyl-1H-indazol-4-yl)benzonitrile], the Bind % entry is given as “+++ (+++ indicates binding activity greater than 75%)”.

Turning to `C=CC(=O)N1CC2(CCN(c3cc(N4CCC(CN(C)C)CC4)cc(-c4c(C)ccc5[nH]ncc45)c3C#N)C2)C1` [Compound I-32, 2-(2-acryloyl-2,6-diazaspiro[3.4]octan-6-yl)-4-(4-((dimethylamino)methyl)piperidin-1-yl)-6-(5-methyl-1H-indazol-4-yl)benzonitrile], the Bind % result is reported as “+++ (+++ indicates binding activity greater than 75%)”.

Consider `C=CC(=O)N1CC2(CCN(c3cc(N4CCCC(N(C)C)C4)cc(-c4c(C)ccc5[nH]ncc45)c3C#N)C2)C1` (centres unmarked) [Compound I-33, 2-(2-acryloyl-2,6-diazaspiro[3.4]octan-6-yl)-4-(3-(dimethylamino)piperidin-1-yl)-6-(5-methyl-1H-indazol-4-yl)benzonitrile], for which the Bind % entry was “+++ (+++ indicates binding activity greater than 75%)”.

With `Cc1ccc2[nH]ncc2c1-c1cc(N2CCOCC2)cc(N2CCC3(CN(C(=O)/C=C/CN(C)C)C3)C2)c1C#N` [Compound I-34, (E)-2-(2-(4-(dimethylamino)but-2-enoyl)-2,6-diazaspiro[3.4]octan-6-yl)-6-(5-methyl-1H-indazol-4-yl)-4-morpholino-benzonitrile], the Bind % entry is “+ (+ indicates binding activity greater than 0% and up to 50%)”.

Regarding `C=CC(=O)N1CC2(CCN(c3cc(OCCCN(C)C)cc(-c4c(C)ccc5cnn(C)c45)c3C#N)C2)C1` [Compound I-35, 2-(2-acryloyl-2,6-diazaspiro[3.4]octan-6-yl)-6-(1,6-dimethyl-1H-indazol-7-yl)-4-(3-(dimethylamino)propoxy) benzonitrile], the Bind % result is “++ (++ indicates binding activity from 50 to 75%)”.
